Test results as given in patent publication US20120016010A1, “RNA Interference Mediated Inhibition of BTB and CNC Homology 1, Basic Leucine Zipper Transcription Factor 1 (BACH1) Gene Expression Using Short Interfering Nucleic Acid (siNA)” (Merck Sharp & Dohme Corp, priority 2009, published 2012).

What was measured:
TLR7 = target: T1, TLR7 (Homo sapiens, UniProt Q9NYK1); type: cell-based
T1 construct: expressed in transfected cells
T1 sequence (Q9NYK1 27-1049): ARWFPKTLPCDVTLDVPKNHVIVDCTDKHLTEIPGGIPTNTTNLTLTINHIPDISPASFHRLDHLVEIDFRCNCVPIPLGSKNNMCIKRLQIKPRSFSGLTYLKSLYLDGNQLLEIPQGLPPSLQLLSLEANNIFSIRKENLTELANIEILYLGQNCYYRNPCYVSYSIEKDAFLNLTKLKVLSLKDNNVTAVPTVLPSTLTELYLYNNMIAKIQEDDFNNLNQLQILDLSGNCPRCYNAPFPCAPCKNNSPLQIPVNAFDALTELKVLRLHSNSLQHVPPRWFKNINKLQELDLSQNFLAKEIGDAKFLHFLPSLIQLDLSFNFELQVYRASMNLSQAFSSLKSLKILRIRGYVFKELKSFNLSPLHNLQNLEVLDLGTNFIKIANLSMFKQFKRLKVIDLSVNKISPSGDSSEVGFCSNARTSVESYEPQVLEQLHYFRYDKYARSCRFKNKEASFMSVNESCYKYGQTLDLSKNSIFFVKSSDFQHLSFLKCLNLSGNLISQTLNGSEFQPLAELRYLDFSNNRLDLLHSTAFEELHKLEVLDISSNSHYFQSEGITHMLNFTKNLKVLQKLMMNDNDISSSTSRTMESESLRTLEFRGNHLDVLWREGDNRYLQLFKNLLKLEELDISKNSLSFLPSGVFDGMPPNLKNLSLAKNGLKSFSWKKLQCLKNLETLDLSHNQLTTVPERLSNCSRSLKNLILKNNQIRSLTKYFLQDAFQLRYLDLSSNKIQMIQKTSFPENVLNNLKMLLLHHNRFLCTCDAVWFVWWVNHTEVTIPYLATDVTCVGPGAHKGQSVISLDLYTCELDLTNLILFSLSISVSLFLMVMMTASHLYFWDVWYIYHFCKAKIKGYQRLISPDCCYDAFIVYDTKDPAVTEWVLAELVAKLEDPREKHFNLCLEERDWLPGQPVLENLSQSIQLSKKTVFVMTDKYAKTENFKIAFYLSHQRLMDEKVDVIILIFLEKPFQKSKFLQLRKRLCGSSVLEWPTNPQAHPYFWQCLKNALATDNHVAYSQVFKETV
Protocol: (§1) Human U205-TLR7 and Human U205-TLR8 cells were grown at 37 degrees in the presence of 5% CO2 and were cultured in Dulbeco's modified Eagle's Medium (DMEM), 1% non essential amino acids, supplemented with fetal bovine serum at 10% and 100 ug/ml streptomycin and 100 u/ml penicillin. Stable expression of TLR7 and TLR8 was maintained by the addition of 300 ug/ml […].
(§2) TLR7 and TLR8 expressing U2OS osteosarcoma cells were seeded in 96-well plate format at a concentration of 2×10^4 cells/well 24 hours prior to transfection. Cells were transfected with the siNAs using DharmaFECT1 lipid transfection reagent using Resiquimod (R848) and the LyoVec-complexed, GU-rich oligonucleotide ssRNA40 respectively as controls (100 μl/well). (DharmaFECT1 was used as the delivery agent for the siNAs as it combines low immunostimulatory effects with high delivery efficiency.) The treatment media were replaced after 6 hours with antibiotic containing DMEM. Cells were harvested 24 hours following transfection. […] An agonist concentration range of 4-10 μg/ml was established since it caused optimal levels of IL8 mRNA expression for the assay.
(§3) TLR7 and TLR8 mediated immunostimulation was measured by the increase in IL8 mRNA levels when the siNAs were formulated with DharmaFect1 (Gibco BRL) and delivered to U2OS cells that were engineered to stably express TLR7 or TLR8. The cells were treated with the TLR7 and TLR8 agonists Resiquimod (R848) and ssRNA40/LyoVec respectively to act as positive controls for IL8 mRNA induction. IL8 mRNA levels were used as a biomarker of TLR7 and TLR8 mediated immunostimulation.

TLR8 = target: T2, TLR8 (Homo sapiens, UniProt Q9NR97); type: cell-based
T2 construct: expressed in transfected cells
T2 sequence (Q9NR97 27-1041): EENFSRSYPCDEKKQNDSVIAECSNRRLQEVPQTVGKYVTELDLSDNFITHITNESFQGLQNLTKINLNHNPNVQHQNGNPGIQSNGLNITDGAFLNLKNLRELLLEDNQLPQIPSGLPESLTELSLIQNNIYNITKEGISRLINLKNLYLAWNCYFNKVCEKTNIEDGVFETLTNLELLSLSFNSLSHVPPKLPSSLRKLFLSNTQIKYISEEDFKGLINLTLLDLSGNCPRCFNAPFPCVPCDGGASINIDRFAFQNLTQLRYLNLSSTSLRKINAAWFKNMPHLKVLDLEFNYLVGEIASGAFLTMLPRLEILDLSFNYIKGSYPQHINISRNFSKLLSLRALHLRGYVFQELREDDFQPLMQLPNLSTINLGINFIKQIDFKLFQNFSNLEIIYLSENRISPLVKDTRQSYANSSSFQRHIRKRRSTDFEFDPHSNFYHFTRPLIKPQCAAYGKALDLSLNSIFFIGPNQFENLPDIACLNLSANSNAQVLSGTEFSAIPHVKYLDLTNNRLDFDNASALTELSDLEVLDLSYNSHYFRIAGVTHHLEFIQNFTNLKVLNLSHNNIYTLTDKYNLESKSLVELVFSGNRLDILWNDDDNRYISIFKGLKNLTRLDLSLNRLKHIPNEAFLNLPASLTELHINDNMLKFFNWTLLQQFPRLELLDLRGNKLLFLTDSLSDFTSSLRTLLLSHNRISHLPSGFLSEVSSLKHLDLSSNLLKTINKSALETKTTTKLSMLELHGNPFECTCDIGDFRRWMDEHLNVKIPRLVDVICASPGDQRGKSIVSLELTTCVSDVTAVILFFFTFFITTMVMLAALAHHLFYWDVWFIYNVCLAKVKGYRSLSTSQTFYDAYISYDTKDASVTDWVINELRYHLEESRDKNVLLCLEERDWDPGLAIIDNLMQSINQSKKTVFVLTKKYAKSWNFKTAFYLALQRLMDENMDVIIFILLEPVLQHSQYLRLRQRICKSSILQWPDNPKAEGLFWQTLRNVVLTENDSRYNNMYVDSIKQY
Protocol: as §1, §2, §3

Substance	Immunostimulation TLR7 mediated in Human U2OS- TLR7 cells IL8 mRNA increase n = 4 individual expts (TLR7)	Immunostimulation TLR8 mediated in Human U2OS-TLR8 cells IL8 mRNA increase n = 4 individual expts (TLR8)	TLR7 mediated immunostimulatory activity (IL8 mRNA induction) (TLR7)	TLR8 mediated immunostimulatory activity (IL8 mRNA induction) (TLR8)
29957-DC (sense GCAGUUACUUCCACUCAAGTT; antisense CUUGAGUGGAAGUAACUGCUU; inverted abasic end caps, TT overhangs, modified nucleotides, further chemistry not given here)	Upregulation up to 100 nM	Upregulation up to 100 nM		
29956-DC (sense GUCUGAGUGUCCGUGGUUATT; antisense UAACCACGGACACUCAGACUU; inverted abasic caps (B), 2'-modified nucleotides, further chemistry not given here)	No significant effect up to 100 nM	No significant effect up to 100 nM		
29961-DC (sense CUACACUGCUAAACUGAUUTT; antisense AAUCAGUUUAGCAGUGUAGUU; inverted abasic end caps, TT overhangs, modified nucleotides, further chemistry not given here)	No significant effect up to 100 nM	No significant effect up to 100 nM	no or very low TLR7 mediated immunostimulatory activity	no TLR8 mediated immunostimulatory activity
29947-DC (sense GGAAUCCUGCUUUCAGUUUTT; antisense AAACUGAAAGCAGGAUUCCUU; inverted abasic caps (B), 2'-modified nucleotides, further chemistry not given here)	No significant effect up to 100 nM	No significant effect up to 100 nM	no or very low TLR7 mediated immunostimulatory activity	no TLR8 mediated immunostimulatory activity
29964-DC (sense GAUUUGCAGGUGAUGUUAATT; antisense UUAACAUCACCUGCAAAUCUU; inverted abasic end caps, TT overhangs, modified nucleotides, further chemistry not given here)	No significant effect up to 100 nM	No significant effect up to 100 nM	no or very low TLR7 mediated immunostimulatory activity	no TLR8 mediated immunostimulatory activity
29984-DC (sense GUUAAAGGAUUUGAACCUUTT; antisense AAGGUUCAAAUCCUUUAACUU; inverted abasic end caps, TT overhangs, modified nucleotides, further chemistry not given here)	No significant effect up to 100 nM	No significant effect up to 100 nM	no or very low TLR7 mediated immunostimulatory activity	no TLR8 mediated immunostimulatory activity
29988-DC (sense AUUUGAACCUUUAAUUCAGTT; antisense CUGAAUUAAAGGUUCAAAUUU; inverted abasic end caps, TT overhangs, modified nucleotides, further chemistry not given here)	No significant effect up to 100 nM	No significant effect up to 100 nM	no or very low TLR7 mediated immunostimulatory activity	no TLR8 mediated immunostimulatory activity
